Row | SMILES | melting point
1 | O=C(O)COc1cc2onc(-c3ccccc3F)c2cc1Br | 223 to 224 °C
2 | CCCCCCCCCC(=O)Nc1ccc(S(=O)(=O)Nc2nnc(C(C)(C)C)s2)cc1 | 156 to 157 °C
3 | O=C(/C=C/[C@@H]1[C@H]2CC(=O)O[C@H]2C[C@H]1OC(=O)c1ccccc1)COc1ccccc1 | 132 °C
4 | O=C(CCCCCC(c1cc(F)ccc1F)S(=O)(=O)c1ccc(Cl)cc1)N1CCCC1 (stereo not drawn) | 106 °C
5 | CCn1c(C(O)(C2CCCCC2)C2CCCCC2)nc(-c2ccncc2)c1-c1ccc(Cl)cc1 | 221 to 224 °C
6 | COc1cc2c3c(n(C)c(=O)c2cc1OC)-c1cc2c(cc1C3=CCCCBr)OCO2 | 197 to 199 °C
7 | NCc1ccn(C2=CC3=C(CC2)CCc2[nH]c(=O)c(=O)n(O)c23)c1 | > 250 °C
8 | N#Cc1nc(C=Cc2cnn(-c3c(Cl)cc(C(F)(F)F)cc3Cl)n2)[nH]c1C#N | 111 to 112 °C
9 | CCCc1c(OCC(O)CSc2ccc(C(=O)CCC(=O)O)c(O)c2)ccc(C(C)=O)c1O (stereo not drawn) | 150 °C
10 | CC(=Cn1ccnc1)C(=O)c1ccc(Cl)cc1Cl | 129 to 130 °C
11 | CN(C(=O)COc1cc(-c2ccccc2)nc2ccccc12)c1ccccc1 | 150 °C
12 | CC(C)(C)OC(=O)NC1CC(=O)C1 | 75 to 78 °C
13 | CCOC(=O)c1cn(C)c2cnc3cc(F)c(N4CCCC(C)(C)C4)cc3c2c1=O | 218 to 220 °C
14 | O=C(Nc1ccc(-n2nc(C(F)(F)F)cc2C(F)(F)F)cc1)c1ccncc1 | 156 to 157 °C
15 | CCOC(=O)C1CN2c3c(c(F)c(F)c(F)c3C1=O)CCN2C (stereo not drawn) | 236 to 240 °C
16 | COC(=O)N1C(=O)C=CC1=O | 61 to 63 °C
17 | COc1ccc(NC(=O)c2ccc(Cl)c(Cl)c2)cc1NS(=O)(=O)c1ccc(C)cc1 | 228 to 230 °C
18 | CC(=NC(=Nc1ccccc1)N1CCOCC1)NC(C)(C)C | 164 to 166 °C
19 | CCOc1ccc(Nc2n[nH]c(N)c2C#N)cc1 | 166 to 167 °C
20 | CC(=O)N1N=C(c2ccc([N+](=O)[O-])cc2)c2cc(Br)ccc2CC1C (stereo not drawn) | 228 to 230 °C
21 | CS(=O)(=O)c1ccc(-n2nc(C(F)(F)F)cc2-c2ccc(-n3ccnc3)cc2)cc1 | 183 to 184 °C
22 | CCCCCCCCCCCCn1nnc(Nc2ccccc2)n1 | 58 to 61 °C

Row | SMILES | melting point
23 | CC(C)C[C@H](NC(=O)OCc1ccccc1)C(=O)N[C@@H](CCc1ccccc1)C(=O)CSCc1ccco1 | 73 to 77 °C
24 | CCCCC(=O)N(CCCCO)Cc1ccc(-c2ccccc2-c2nnn[nH]2)cc1 | 110 to 111 °C
25 | COC(=O)CCCc1cc2nc(C(F)(F)F)ccc2n1S(=O)(=O)c1ccccc1 | 95 °C
26 | COc1cc(N)c(Cl)cc1C(=O)NCCN1CCC2(CC1)C(=O)NCN2c1ccccc1 | 247 °C
27 | NC(N)=Nc1nc(-c2cccc(CNC(=O)CSCc3ccco3)n2)cs1 | 182 °C
28 | CCOC(=O)NC(=NCCN(Cc1ccc(Cl)cc1)c1ccccn1)NCCCc1c[nH]cn1 | 94 to 96 °C
29 | COCc1cc(O)cc2cc(-c3ccc(O)cc3)oc12 | 186 to 188 °C
30 | NC(=S)c1nccc(F)c1Cn1ccnc1 | 154 to 156 °C
31 | COc1ccc(C(F)(F)F)cc1N1CCN(CCCNC(=O)c2cccc3c(=O)c(C)c(-c4ccccc4)oc23)CC1 | 173 to 176 °C
32 | CC(C)(c1ccc(Oc2cccc3c2C(=O)NC3=O)cc1)c1ccc(Oc2cccc3c2C(=O)NC3=O)cc1 | 258 to 260 °C
33 | CCCCNC(=O)NS(=O)(=O)c1cccc2c1OC(C)(C)C2 | 200 to 203 °C
34 | Cc1cc(C)c2c(n1)N(CCCCl)c1ccccc1N(C)C2=O | 161 to 163 °C
35 | CCCC(C)(C)C[C@@H](CC(=O)OC(C)(C)C)C(=O)N1C(=O)O[C@H](c2ccccc2)[C@@H]1C | 83 to 85 °C
36 | OCc1cn(-c2cc(F)cc(C(F)(F)F)c2)cn1 | 144 to 145 °C
37 | NNC1=Nc2sc(Cl)cc2C(c2ccccc2)=NC1 | 204 to 207 °C
38 | CC(=O)Oc1cc2c(c([N+](=O)[O-])c1OC(C)=O)C(=O)C(C)(C)CC2 | 145 to 147 °C
39 | CCc1ccc(C)cc1-n1cncc1C(=O)OC | 56 to 57 °C
40 | CCOC(=O)C(Cc1ccc(O)cc1)c1cc2cc(C#N)ccc2s1 (stereo not drawn) | 146 to 147 °C
41 | OCC(O)COc1ccc(NNC(c2ccccc2)(c2ccccc2)c2ccccc2)nn1 (racemic) | 174 to 176 °C
42 | CC(C)(C)c1cc(SCN2C(=O)c3ccccc3C2=O)cc(C(C)(C)C)c1O | 151 to 153 °C
43 | O=C(NCCSCc1cccc(Br)c1)c1c(Br)cccc1Br | 70 to 72 °C
